The results in this text go back to patent USRE38723E1, “Haloalkyl derivatives of reporter molecules used to analyze metabolic activity in cells” (Molecular Probes, Inc., priority 1991, dated 2005).

Data set [1] relates to NIH/3T3 cells and CRE BAG 2 cells. As to the kind of experiment: Cytotoxicity of CMFDG staining medium (Example 12).
Source text: (§1) The same cell lines as used in Example 11 are used for these experiments.
Data set [2] concerns lacZ positive CRE BAG 2 cells. The experiment in a line: Cellular retention after loading by hypoosmotic shock (Example 12). Format: cell-based. How it is done: 5-Chloromethylfluorescein di-β-D-galactoside (CMFDG) (Example 1) is dissolved in DMSO to get 20 mM stock solution. A 40 mM stock solution offluorescein di-β-D-galaetoside (FDG) (Molecular Probes) is also made in DMSO as a control. The stock solutions are kept sealed in brown reagent bottles and stored at −20° C.
• (A) FCS-PBS Solution: Phosphate buffered saline (GIBCO), 4% fetal calf serum, 10 mM HEPES, pH 7.2 • (B) Staining Solution: CMFDG: 200 μL of stock solution is diluted with distilled water to 4 mL to get a 1 mM staining solution. FDG: 400 μL of stock solution is diluted to 4 mL with distilled water to get a 4 mM staining solution. 4. Staining and Examination of Cells:
Cells grown on coverslips are transferred to a Petri dish containing 3 mL of FCS-PBS solution and then incubated at 37° C. for 10 minutes. 3 mL of prewarmed (37° C.) 1 mM CMFDG staining solution is added to give a final dye concentration of 0.5 mM The solutions are mixed rapidly. The cells are incubated at 37° C. for exactly one minute. To stop the loading, the cells are transferred to a 1.8 mL of ice-cold FCS-PBS solution. FDG is loaded into cells by using the same procedure except that the final dye concentrations is 2 mM. Cells are then incubated under normal culture conditions to examine the dye retention. Cells are examined without washing at the desired time for their fluorescence under a Zeiss microscope equipped with a FITC filter set (EX 485 nm/EM 530 nm).

The test system of another data set is NIH 3T3 cells. The experiment in a line: Cytotoxicity (loss of fluorescence) assay using CMFDG (Example 15). Format: cell-based. Particulars: 10 μM for 30 minutes at 37° C. The method, then: 1) Reagents 5-Chloromethylfluorescein di-β-D-galactopyranoside (CMFDG) (Example 1) and 7-(β-D-galactopyranosyloxy)-4-chloromethylcoumarin (Cl-MUG) (Example 3) are separately dissolved at 10 mM anhydrous DMSO and stored frozen at −20° C. until needed. Saponin is dissolved in PBS at a concentration of 0.04%.
NIH/3T3 cells (lacZ negative) and CRE BAG 2 cells (3T3 cells transformed with a retrovirus containing latZ gene) are employed for cellular assays. Both cell lines can be obtained from American Type Culture Collection Co., Rockville, Md. The cells are grown in a humidified atmosphere of 5% CO2 in Dulbecco's modified Eagle's medium supplemented with 10% calf serum, 50 μg/mL gentamicin, 300 μg/mL L-glutamine and 10 mM HEPES pH7.4.
The experiment is most conveniently performed in a CytoFluor™ 2300 fluorescence plate reader (Millipore) but can be performed qualitatively on a microscope slide or quantitatively in a flow cytometery, or in any system that permits washing of the cells following addition of the cytotoxic agent. […] Fluorescence of each well is determined using a 485 nm excitation filter, a 530 nm emission filter and sensitivity setting 1. […] Loss of fluorescence from the sample is correlated with the loss of integrity of the membrane and thus the cytotoxicity of the reagent.

In data set [3] the test system is lacZ-positive yeast strains EG123 and HR125-5d. The experiment in a line: Measurement of lacZ marker gene expression in transformed yeast (Example 13). Format: cell-based, Saccharomyces cerevisiae. How it is done:
Because the CMFDG substrate generates a product that is so well retained by cells (Examples 11 and 12), it can be used for quantitative measurements of lacZ expression. • 1. A series of lacZ gene containing plasmids, each with a modified yeast promoter are used. When transferred into the appropriate strains of Saccharomyces cerevisiae, each plasmid confers a different level of lacZ gene expression. Yeast strains EG123 and HR125-5d, transformed with these plasmids, are grown in special minimal medium for plasmid maintenance and, after reaching the appropriate level of growth, are assayed for lacZ gene expression as measured by β-galactosidase activity. • 2. The β-galactosidase activity of one aliquot of these transformed yeast cells is measured using o-nitrophenyl-β-D-galactopyranoside (ONPG). • 3. Another aliquot of yeast cells is loaded with the fluorogenic substrate CMFDG as indicated in Example 12. Following washing to remove any dye that has leaked from the cells, the fluorescence intensity of the remaining cells as measured in a CytoFluor 2300 fluorescence plate reader (Millipore) can be measured over time. […] The amount of increase over time can be calculated from the slope of the plotted increase using linear regression. Each yeast strain accumulates fluorescent product at a characteristic rate, as reflected in the differences in the slopes of the various lines. • 4. […]

Data set [4] relates to NIH/3T3 cells and CRE BAG 2 cells. Particulars: 500 μM staining medium for 24 hours.
Source text: as §1

The structures appear in SMILES notation.

Take `O=C1OC2(c3ccc(O[C@@H]4O[C@H](CO)[C@H](O)[C@H](O)[C@H]4O)cc3Oc3cc(O[C@@H]4O[C@H](CO)[C@H](O)[C@H](O)[C@H]4O)ccc32)c2ccc(CCl)cc21` [CMFDG, 5-chloromethylfluorescein di-β-D-galactopyranoside]: the cytotoxicity result in data set [1] was “no cytotoxicity”. Besides, the “staining of cells after 10 minutes incubation” value in data set [2] (0.5 mM CMFDG versus 2 mM FDG, hypoosmotic shock loading) was “very well stained and much brighter”. The “stained cells apparently as bright as after 10 minutes incubation” value in data set [2] (after incubation for 4 hours, 0.5 mM) is “more than 70%”. The “fluorescence of loaded cells” value with NIH 3T3 cells is reported as “brightly fluorescent”. For the same compound, the “fluorescence plotted over time” value in data set [3] (each lacZ-positive yeast strain, CytoFluor 2300 plate reader) was “linear increase in fluorescence”. Further, the “fluorescence intensity over time versus level of lacZ expression (ONPG assay)” value in data set [3] (transformed yeast cells) is listed as “correlates well”. In data set [4], the cell morphology entry is “morphologically normal” and the “population doubling time versus control” value is reported as “same population doubling time”.
